LD50 data for 1 compound are collected here from ChEMBL document CHEMBL1147998, “Synthesis of pH-sensitive amphotericin B-poly(ethylene glycol) conjugates and study of their controlled release in vitro” (Bioorg Med Chem, 2007).

The series can be described thus: Toxicity in iv dosed NMRI mouse after 14 days. It counts as organism-based. Particulars: in vivo.

On to `C[C@@H]1[C@H](O)[C@@H](C)/C=C/C=C/C=C/C=C/C=C/C=C/C=C/[C@H](O[C@@H]2O[C@H](C)[C@@H](O)[C@H](N)[C@@H]2O)C[C@@H]2O[C@](O)(C[C@@H](O)C[C@@H](O)[C@H](O)CC[C@@H](O)C[C@@H](O)CC(=O)O[C@H]1C)C[C@H](O)[C@H]2C(=O)O` [AMPHOTERICIN B], for which the 50% lethal dose (LD50) – broadly, the dose at which mortality reaches 50% – at 336 h turned out to be 3.7 mg/kg.
